Measurements: PMC9860125 (The Journal of Biological Chemistry, 2022)

Legend:
EmrE [1] = target: T1, EmrE (Escherichia coli, UniProt P23895); experiment: SSME transport with purified EmrE in proteoliposomes, empty liposome control; assay type: biochemical; design: WT-EmrE in POPC proteoliposomes
EmrE [2] = target: T1, EmrE; experiment: ITC (pH […] ºC); NMR pH titration; ZZ-exchange NMR; assay type: binding; design: WT EmrE, antiparallel homodimer, in DMPC/DHPC isotropic bicelles
Glu14 = Glu14 (UniProt position 14, GAILAEVIGTT); experiment: NMR; settings: 45 °C; not stated (no added salt beyond the buffer components); 20 mM sodium acetate, 50 mM Mes, 50 mM Mops, 100 mM bicine, 2 mM TCEP, 0.01% sodium azide; Saturated with 2H-dTPP2+ (at least 4x the EmrE monomer concentration). Alternating access is in slow exchange, and the substrate is associated asymmetrically with subunit A.

T1 sequence (P23895 whole entry): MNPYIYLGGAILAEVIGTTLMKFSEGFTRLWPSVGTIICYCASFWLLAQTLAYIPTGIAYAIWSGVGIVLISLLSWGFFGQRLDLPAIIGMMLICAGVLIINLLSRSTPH

## CC[n+]1c(-c2ccccc2)c2cc(N)ccc2c2ccc(N)cc21 [Eth+, ethidium]
EmrE [1]
  SSME transport with purified EmrE in proteoliposomes, empty liposome control: observed signal under these conditions is transport dependent on the protein as empty controls show minimal signal

## C[n+]1ccc(-c2cc[n+](C)cc2)cc1 [MV2+, methyl viologen]
EmrE [1]
  SSME transport with purified EmrE in proteoliposomes, empty liposome control: Addition of the substrate gradient resulted in increased net flux compared with drug-free conditions, consistent with net symport

## c1ccc([P+](c2ccccc2)(c2ccccc2)c2ccc([P+](c3ccccc3)(c3ccccc3)c3ccccc3)cc2)cc1 [dTPP2+, 1,4-phenylenebis(triphenylphosphonium) bromide]
EmrE [2]
  Kd: 8.1 ± 0.4 µM

## c1ccc(C(c2ccccc2)(c2ccccc2)c2ccc([P+](c3ccccc3)(c3ccccc3)c3ccccc3)cc2)cc1 [dTPP+, triphenyl[4-(triphenylmethyl)phenyl]phosphonium iodide]
EmrE [2]
  Kd: 9.3 ± 0.3 µM

## EmrE (small multidrug resistance transporter) (Escherichia coli)
Glu14
  pKa: 6.2 ± 0.1
